Common to all, as to experiment: NCI tumour cell line growth inhibition, 48 h
For test [1], the system named is SN12C renal.
For test [2], the system named is U251 CNS.
Test [3] deals with MDA-N.
For test [4], the system named is NCI-H226 lung.
The test system of test [5] is NCI-H522 lung.
The test system of test [6] is MDA-MB-231 breast.
The subject of test [7] is NCI/ADR-RES ovarian.
Test [8] has as its system RXF 393 renal.
Test [9] concerns COLO 205 colon.
For test [10], the system named is MOLT-4 leukemia.
Test [11] concerns SR leukemia.

From PubChem BioAssay (NCI) come the findings set out here.

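Briefly, cells in 96-well plates were exposed to five compound concentrations for 48 h, and endpoints were estimated by linear interpolation. The concentration for 50% growth inhibition is given as GI50. At the TGI there is no net growth.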 Some results are limits rather than exact numbers.

In the case of `O=C1C=CC2(O[C@H](c3ccccc3)[C@@H](c3ccccc3)O2)[C@H](Sc2ccccc2O)C1`, the TGI worked out at 0.353 µM in test [1]; 1.78 µM in test [2]; 1.13 µM in test [3]; 5.43 µM in test [4]; 0.182 µM in [5]; 2.22 µM in [6]. Besides, the TGI is 10 µM in test [7], 0.524 µM in test [8] and 1.62 µM in test [9].

For `O=C(c1ccco1)N(C(=O)N1CCCCC1)c1ccccc1`, the TGI in [10], in [1], in test [2], in [3], in [4] and in test [6] was more than 100 µM in each case. In addition, the TGI in [7], in test [8] and in test [9] was more than 100 µM each time.

For `COc1cccc(C2c3cc4c(cc3OC(O)C2C)OCO4)c1OC` (configuration not stated), the TGI turned out to be 18.5 µM in test [10]; 64 µM in test [1]; 40.2 µM in test [2]; 58.3 µM in test [3]; 24.8 µM in test [4]; 42.4 µM in [6]. Also, the TGI in [8] was 23.5 µM; in [9], 19.7 µM; in test [11] it was 11.3 µM.

In the case of `CN1CSC(=S)N(c2cccc(C(F)(F)F)c2)C1`, the TGI in [10] is 57 µM; in test [1], more than 100 µM; in [2], more than 100 µM; in [3], 91.2 µM; in test [4], 61.8 µM; in [5] it was 30.8 µM. The TGI in test [7] is 73.4 µM; in test [8], more than 100 µM; in [9], 37.2 µM; in test [11], 52.5 µM.

Consider `Nc1ncnc2c1nnn2C1C=CC(CP(=O)(O)O)C1` (configuration not stated), for which the TGI in test [10], in [1], in test [2], in test [3], in test [4] and in [6] was more than 100 µM each time. The TGI in [7], in test [8] and in test [9] was more than 100 µM each time.

Turning to `COC1OC(C)C(NC(=O)OCC(Cl)(Cl)Cl)C2OC(C)(C)OC12` (configuration not stated), the TGI in test [10], in test [1], in [2], in test [4], in test [5] and in [6] was more than 100 µM in each case. The TGI in test [7], in test [8], in test [9] and in test [11] was more than 100 µM in each case.

`CCCCCCCCCCCCCCCCCCOc1ccccc1CC(=O)NCC[N+]1(C)CCOCC1`: the GI50 in test [1] was 2.26 µM; in test [4], 4.9 µM; in [5], 1.95 µM; in [6] it was 2.76 µM; in test [7], 18.3 µM. For the same molecule, the TGI turned out to be 6.21 µM in test [1]; 89 µM in [4]; 5.05 µM in test [5]; 8.34 µM in test [6]; 56.8 µM in [7].

For the molecule `CN(/N=C1\C(=O)Nc2ccccc21)c1ccccc1`, the TGI was more than 100 µM in [10]; more than 100 µM in [2]; more than 100 µM in test [3]; more than 100 µM in test [4]; more than 100 µM in [5]; 62.5 µM in test [6]. Moreover, the TGI in [11] was more than 100 µM.

As for `Cc1ccc(-c2cc(-c3ccco3)c(C#N)c(=S)[nH]2)cc1`, the TGI in [10] is more than 100 µM; in [1], more than 100 µM; in test [2] it was 62.9 µM; in test [4], more than 100 µM; in test [5], more than 100 µM; in test [6] it was more than 100 µM. Besides, the TGI in test [7], in test [8], in [9] and in [11] was more than 100 µM each time.

In the case of `CC1CC(N2CCOCC2)=Nc2ccccc2N1C` (configuration not stated), the TGI in [10], in test [1], in test [2], in [3], in [4] and in test [5] was more than 100 µM in each case. For the same molecule, the TGI in [6], in test [7], in [8] and in test [9] was more than 100 µM throughout.

As to `NCCN1CCCCCc2ccccc21`, the TGI in test [10], in test [1], in test [2], in [4], in test [5] and in test [7] was more than 10 µM throughout. The TGI in test [8], in [9] and in test [11] was more than 10 µM in each case.

For the molecule `CC(=O)O[C@@H](c1nccn1Cc1ccccc1)[C@H]1OC(C)(C)O[C@@H]1[C@H]1COC(C)(C)O1`, the TGI in test [10], in [1], in test [2], in [3], in test [4] and in test [5] was more than 100 µM each time. For the same molecule, the TGI in test [6], in test [7], in test [8] and in test [9] was more than 100 µM in each case.

With `CC(C)Oc1cccc(N2C(n3ccnc3)=Nc3ccncc3S2(=O)=O)c1`, the TGI in test [10] was found to be 14.8 µM; in [1] it was 29.2 µM; in test [2] it was 28.8 µM; in test [3], 25.4 µM; in [4], 42.5 µM; in [5], 22 µM. Further, the TGI in test [7] worked out at 62 µM; in test [8] it was 28.9 µM; in test [9], 24.7 µM; in test [11], 14.9 µM.

As to `O=C(/C=C/c1ccc(O)c(O)c1)OCCc1ccc2ccccc2c1`, the TGI in test [10] was found to be 11.3 µM; in test [1] it was 17.8 µM; in test [2], 23.8 µM; in test [3], 5.45 µM; in [4], 32.3 µM; in test [5], 8.35 µM. For the same molecule, the TGI in test [6] was 24.3 µM; in test [7] it was 18.3 µM; in test [8], 21.6 µM; in test [9], 16.4 µM.
